Measurements published in ChEMBL document CHEMBL4145544, “Discovery and optimization of 1-(1H-indol-1-yl)ethanone derivatives as CBP/EP300 bromodomain inhibitors for the treatment of castration-resistant prostate cancer” (Eur J Med Chem, 2018).
Activity calls are given as the source filed them. The calls are words filed in the database; no cut-off is given here.

Assays:
MDA-MB-231 = experiment: Antiproliferative activity against human MDA-MB-231 cells after 96 hrs by Cell-Titer Glo assay; assay type: functional, cell-based; conditions: MDA-MB-231, 96 h
LNCaP [1] = experiment: Antiproliferative activity against human LNCAP cells after 72 hrs by Cell-Titer Glo assay; assay type: functional, cell-based; conditions: Homo sapiens, LNCaP, 72 h; read-out: IC50
[2] = biological target: T1, CREB-binding protein/Histone acetyltransferase p300 (Homo sapiens) (UniProt Q09472+Q92793); experiment: Inhibition of EP300/CBP in human LNCAP cells assessed as downregulation of AR-regulated PSA mRNA expression at 1 to 5 uM after 48 hrs by qRT-PCR method; assay type: cell-based
MCF7 = experiment: Antiproliferative activity against human MCF7 cells after 96 hrs by Cell-Titer Glo assay; assay type: functional, cell-based; conditions: MCF7, 96 h
LNCaP C4-2B [3] = experiment: Anticlonogenic activity against human C4-2B cells after 14 days by crystal violet staining based assay; assay type: functional, cell-based
L02 = experiment: Antiproliferative activity against human HL7702 cells after 96 hrs by Cell-Titer Glo assay; assay type: cell-based; conditions: L02, 96 h
LNCaP [4] = experiment: Potency index, ratio of enzalutamide IC50 to compound IC50 for antiproliferative activity against human LNCAP cells; assay type: functional
[5] = biological target: T1, CREB-binding protein/Histone acetyltransferase p300 (Homo sapiens); experiment: Inhibition of EP300/CBP in human LNCAP cells assessed as downregulation of Myc mRNA expression at 1 to 5 uM after 48 hrs by qRT-PCR method; assay type: cell-based
[6] = biological target: T1, CREB-binding protein/Histone acetyltransferase p300 (Homo sapiens); experiment: Inhibition of EP300/CBP in human LNCAP cells assessed as downregulation of AR-regulated KLK2 mRNA expression at 1 to 5 uM after 48 hrs by qRT-PCR method; assay type: cell-based
[7] = biological target: T1, CREB-binding protein/Histone acetyltransferase p300 (Homo sapiens); experiment: Inhibition of EP300/CBP in human LNCAP cells assessed as downregulation of AR-regulated TMPRSS2 mRNA expression at 1 to 5 uM after 48 hrs by qRT-PCR method; assay type: cell-based
LNCaP C4-2B [8] = experiment: Anticlonogenic activity against human C4-2B cells at 4 uM after 14 days by crystal violet staining based assay relative to control; assay type: functional
PC-3 = experiment: Antiproliferative activity against human PC3 cells after 96 hrs by Cell-Titer Glo assay; assay type: functional, cell-based; conditions: PC-3, 96 h
Hs-578T = experiment: Antiproliferative activity against human Hs 578T cells after 72 hrs by Cell-Titer Glo assay; assay type: functional, cell-based
CWR22R [9] = experiment: Anticlonogenic activity against human 22Rv1 cells at 4 uM after 14 days by crystal violet staining based assay relative to control; assay type: functional
HFL1 = experiment: Antiproliferative activity against HFL1 cells after 72 hrs by Cell-Titer Glo assay; assay type: cell-based; conditions: Homo sapiens, HFL1, 72 h
CWR22R [10] = experiment: Potency index, ratio of enzalutamide IC50 to compound IC50 for antiproliferative activity against human 22Rv1 cells; assay type: functional
CWR22R [11] = experiment: cells; conditions: Homo sapiens, 22Rv1, 72 h
Description: Antiproliferative activity against human 22Rv1 cells after 72 hrs by Cell-Titer Glo assay

CWR22R [12] = experiment: Anticlonogenic activity against human 22Rv1 cells after 14 days by crystal violet staining based assay; assay type: functional, cell-based
[13] = biological target: T1, CREB-binding protein/Histone acetyltransferase p300 (Homo sapiens); experiment: Inhibition of EP300/CBP in human LNCAP cells assessed as downregulation of full length AR mRNA expression at 1 to 5 uM after 48 hrs by qRT-PCR method; assay type: cell-based
[14] = biological target: T1, CREB-binding protein/Histone acetyltransferase p300 (Homo sapiens); experiment: Inhibition of EP300/CBP in human LNCAP cells transfected with PSA-Luc reporter plasmid after 24 hrs by luciferase reporter gene assay; assay type: cell-based

T1 sequence (Q09472 whole entry, looked up): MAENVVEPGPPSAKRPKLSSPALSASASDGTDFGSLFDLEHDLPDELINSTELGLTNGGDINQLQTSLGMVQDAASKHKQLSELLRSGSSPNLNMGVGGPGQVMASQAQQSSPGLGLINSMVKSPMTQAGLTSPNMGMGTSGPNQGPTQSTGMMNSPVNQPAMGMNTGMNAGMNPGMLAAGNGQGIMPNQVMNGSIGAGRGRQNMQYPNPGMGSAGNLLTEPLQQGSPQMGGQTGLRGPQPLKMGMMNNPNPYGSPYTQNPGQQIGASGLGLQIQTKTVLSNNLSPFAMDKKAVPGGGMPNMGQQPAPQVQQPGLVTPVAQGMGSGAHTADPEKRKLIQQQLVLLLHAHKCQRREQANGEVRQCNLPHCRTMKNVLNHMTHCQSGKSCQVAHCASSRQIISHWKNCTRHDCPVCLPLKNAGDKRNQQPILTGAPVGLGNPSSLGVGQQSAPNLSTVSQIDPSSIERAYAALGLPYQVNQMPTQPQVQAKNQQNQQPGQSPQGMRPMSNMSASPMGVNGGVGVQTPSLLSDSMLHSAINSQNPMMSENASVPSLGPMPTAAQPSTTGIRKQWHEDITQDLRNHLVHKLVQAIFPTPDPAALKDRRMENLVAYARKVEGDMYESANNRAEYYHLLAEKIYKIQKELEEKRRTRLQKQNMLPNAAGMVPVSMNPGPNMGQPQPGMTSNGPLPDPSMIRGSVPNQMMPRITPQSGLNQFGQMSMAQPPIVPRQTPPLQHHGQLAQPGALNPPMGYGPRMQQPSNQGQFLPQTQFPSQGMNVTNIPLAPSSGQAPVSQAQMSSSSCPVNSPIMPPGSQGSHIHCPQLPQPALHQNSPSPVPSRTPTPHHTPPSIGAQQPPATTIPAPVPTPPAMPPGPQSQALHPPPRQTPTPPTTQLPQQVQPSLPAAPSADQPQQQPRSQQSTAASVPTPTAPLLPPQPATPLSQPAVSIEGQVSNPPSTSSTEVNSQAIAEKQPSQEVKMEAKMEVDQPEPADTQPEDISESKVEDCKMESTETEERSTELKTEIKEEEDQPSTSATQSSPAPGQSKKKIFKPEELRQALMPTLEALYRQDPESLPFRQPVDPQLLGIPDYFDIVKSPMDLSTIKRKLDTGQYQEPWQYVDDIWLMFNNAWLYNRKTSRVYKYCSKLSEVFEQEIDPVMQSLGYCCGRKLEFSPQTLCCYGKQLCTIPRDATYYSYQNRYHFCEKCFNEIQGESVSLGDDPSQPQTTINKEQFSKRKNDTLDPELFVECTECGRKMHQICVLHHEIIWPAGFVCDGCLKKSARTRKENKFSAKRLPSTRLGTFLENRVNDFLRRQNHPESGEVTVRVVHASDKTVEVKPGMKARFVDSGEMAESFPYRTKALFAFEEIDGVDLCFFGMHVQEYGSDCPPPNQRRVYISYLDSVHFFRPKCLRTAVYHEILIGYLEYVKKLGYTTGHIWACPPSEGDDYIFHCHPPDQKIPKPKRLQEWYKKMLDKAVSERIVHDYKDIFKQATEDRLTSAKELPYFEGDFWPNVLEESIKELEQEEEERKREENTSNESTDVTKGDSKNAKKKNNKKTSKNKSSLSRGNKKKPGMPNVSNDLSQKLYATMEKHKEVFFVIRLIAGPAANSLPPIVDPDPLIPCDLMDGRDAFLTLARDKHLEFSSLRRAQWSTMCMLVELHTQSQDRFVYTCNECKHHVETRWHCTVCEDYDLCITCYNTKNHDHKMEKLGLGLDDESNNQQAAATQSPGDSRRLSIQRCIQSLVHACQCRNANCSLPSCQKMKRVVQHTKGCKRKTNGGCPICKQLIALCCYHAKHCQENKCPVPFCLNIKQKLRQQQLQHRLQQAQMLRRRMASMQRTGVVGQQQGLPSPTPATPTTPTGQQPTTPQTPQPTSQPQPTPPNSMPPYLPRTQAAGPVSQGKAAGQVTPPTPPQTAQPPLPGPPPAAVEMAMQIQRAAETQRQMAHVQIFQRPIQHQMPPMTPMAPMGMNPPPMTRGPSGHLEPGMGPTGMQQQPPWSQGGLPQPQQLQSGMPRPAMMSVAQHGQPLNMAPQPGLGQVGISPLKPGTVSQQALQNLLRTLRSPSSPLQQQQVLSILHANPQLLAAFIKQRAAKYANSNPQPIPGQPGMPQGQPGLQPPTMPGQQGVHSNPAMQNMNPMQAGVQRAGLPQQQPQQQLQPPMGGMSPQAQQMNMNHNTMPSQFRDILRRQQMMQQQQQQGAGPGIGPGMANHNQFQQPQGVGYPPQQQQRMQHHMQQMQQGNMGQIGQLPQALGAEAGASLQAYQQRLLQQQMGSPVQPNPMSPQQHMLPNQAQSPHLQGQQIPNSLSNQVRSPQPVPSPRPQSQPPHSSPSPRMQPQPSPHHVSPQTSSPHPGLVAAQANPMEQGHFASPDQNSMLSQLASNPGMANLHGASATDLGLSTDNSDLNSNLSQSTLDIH
T1 sequence (Q92793 whole entry, looked up): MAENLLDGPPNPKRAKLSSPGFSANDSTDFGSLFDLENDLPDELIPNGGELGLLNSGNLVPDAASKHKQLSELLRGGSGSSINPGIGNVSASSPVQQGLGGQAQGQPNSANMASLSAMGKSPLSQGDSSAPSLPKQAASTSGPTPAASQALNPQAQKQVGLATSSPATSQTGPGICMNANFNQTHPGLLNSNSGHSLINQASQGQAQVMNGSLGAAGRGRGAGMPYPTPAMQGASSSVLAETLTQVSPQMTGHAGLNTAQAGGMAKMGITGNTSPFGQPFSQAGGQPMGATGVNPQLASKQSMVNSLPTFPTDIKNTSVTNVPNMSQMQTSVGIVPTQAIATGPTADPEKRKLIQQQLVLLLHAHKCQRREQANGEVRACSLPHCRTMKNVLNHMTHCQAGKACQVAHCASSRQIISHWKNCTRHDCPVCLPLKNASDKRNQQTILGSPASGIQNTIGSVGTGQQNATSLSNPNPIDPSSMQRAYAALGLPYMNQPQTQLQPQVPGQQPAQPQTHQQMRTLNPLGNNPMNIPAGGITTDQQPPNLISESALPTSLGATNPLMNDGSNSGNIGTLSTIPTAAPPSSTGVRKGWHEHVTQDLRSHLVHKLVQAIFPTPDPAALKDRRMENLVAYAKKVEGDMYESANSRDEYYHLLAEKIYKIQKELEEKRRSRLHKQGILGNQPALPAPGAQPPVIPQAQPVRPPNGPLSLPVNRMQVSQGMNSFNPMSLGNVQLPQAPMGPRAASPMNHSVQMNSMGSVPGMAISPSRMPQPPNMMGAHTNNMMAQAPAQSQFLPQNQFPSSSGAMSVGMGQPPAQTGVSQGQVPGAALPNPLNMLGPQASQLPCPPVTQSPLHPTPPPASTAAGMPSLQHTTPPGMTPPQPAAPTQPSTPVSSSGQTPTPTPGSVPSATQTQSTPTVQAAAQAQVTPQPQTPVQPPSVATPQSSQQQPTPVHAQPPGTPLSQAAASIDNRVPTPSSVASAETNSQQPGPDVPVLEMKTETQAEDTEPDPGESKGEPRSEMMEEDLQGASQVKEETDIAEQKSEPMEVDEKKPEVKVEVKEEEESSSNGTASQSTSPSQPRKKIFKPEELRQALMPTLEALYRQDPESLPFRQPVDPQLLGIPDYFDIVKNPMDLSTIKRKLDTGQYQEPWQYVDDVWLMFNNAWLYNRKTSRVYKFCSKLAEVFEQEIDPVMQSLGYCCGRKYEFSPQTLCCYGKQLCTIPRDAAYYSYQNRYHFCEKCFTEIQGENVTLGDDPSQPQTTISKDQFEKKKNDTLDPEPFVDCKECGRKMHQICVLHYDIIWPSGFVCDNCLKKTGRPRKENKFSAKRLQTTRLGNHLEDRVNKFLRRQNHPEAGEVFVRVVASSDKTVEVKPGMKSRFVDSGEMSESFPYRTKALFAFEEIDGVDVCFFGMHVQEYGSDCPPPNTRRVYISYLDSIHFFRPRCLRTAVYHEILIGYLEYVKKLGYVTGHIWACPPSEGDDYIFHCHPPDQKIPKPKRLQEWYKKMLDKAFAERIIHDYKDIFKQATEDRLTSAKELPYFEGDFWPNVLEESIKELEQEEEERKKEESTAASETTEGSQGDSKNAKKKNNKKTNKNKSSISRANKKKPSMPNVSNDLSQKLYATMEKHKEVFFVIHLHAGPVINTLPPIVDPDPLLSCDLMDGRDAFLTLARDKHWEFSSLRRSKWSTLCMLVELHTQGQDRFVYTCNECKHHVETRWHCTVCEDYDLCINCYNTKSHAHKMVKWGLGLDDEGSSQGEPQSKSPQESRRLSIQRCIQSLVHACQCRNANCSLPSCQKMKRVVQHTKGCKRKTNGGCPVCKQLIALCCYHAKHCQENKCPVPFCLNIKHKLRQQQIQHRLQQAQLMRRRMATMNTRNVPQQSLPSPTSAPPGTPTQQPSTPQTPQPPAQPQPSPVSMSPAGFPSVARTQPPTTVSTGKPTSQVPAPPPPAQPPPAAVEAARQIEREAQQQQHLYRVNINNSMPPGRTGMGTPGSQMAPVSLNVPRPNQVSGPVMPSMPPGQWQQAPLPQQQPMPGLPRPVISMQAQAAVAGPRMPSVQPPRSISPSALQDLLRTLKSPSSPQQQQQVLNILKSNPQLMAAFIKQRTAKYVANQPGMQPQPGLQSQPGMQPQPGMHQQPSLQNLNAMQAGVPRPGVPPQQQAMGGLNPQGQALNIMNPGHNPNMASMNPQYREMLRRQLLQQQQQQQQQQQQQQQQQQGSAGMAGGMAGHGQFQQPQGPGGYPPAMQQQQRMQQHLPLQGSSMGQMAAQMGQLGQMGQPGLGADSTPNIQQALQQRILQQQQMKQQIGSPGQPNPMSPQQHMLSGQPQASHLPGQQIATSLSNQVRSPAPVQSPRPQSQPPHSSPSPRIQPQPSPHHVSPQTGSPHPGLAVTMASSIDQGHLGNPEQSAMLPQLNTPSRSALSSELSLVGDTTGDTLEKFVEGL

Structure (SMILES): COc1ccc2c(c1)c(C(=O)Nc1cc(C(=O)OC(C)(C)C)cc(-c3cnn(C)c3)c1F)cn2C(C)=O
- IC50 (MDA-MB-231): 36 µM
- IC50 (LNCaP [1]): 2.01 µM
- inhibition [2]: Active
- IC50 (MCF7): 7.46 µM
- Activity (LNCaP C4-2B [3]): Dose-dependent effect
- IC50 (L02): 40 µM
- Ratio IC50 (LNCaP [4]): 17
- inhibition [5]: Active
- inhibition [6]: Active
- inhibition [7]: Active
- Activity (LNCaP C4-2B [8]): <10%
- IC50 (PC-3): 25.8 µM
- IC50 (Hs-578T): 15.1 µM
- Activity (CWR22R [9]): <10%
- IC50 (HFL1): > 100 µM
- Ratio IC50 (CWR22R [10]): 17
- IC50 (CWR22R [11]): 2.13 µM
- Activity (CWR22R [12]): Dose-dependent effect
- inhibition [13]: Active
- inhibition [14]: Dose-dependent effect
